The source of these data is PubChem BioAssay (NCI).

Each structure is given as a SMILES string.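 Cultured in 96-well plates, cells were exposed to test compound for 48 hours across five concentrations. GI50: concentration for 50% inhibition of growth. Definition used: TGI = concentration required for complete inhibition of growth.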

Test systems include SNB-19 CNS; RXF 393 renal; ACHN renal; COLO 205 colon; LOX IMVI melanoma; MALME-3M melanoma; NCI-H460 lung; UACC-257 melanoma; TK-10 renal.
What all share (experiment): NCI-60 cell line screen, 48 h

Take `Cc1cc(Cl)cc2c1NC(=O)C2(O)CC(=O)c1ccc(F)cc1` (centres undefined): the TGI in the test on SNB-19 CNS is > 100 µM; in the test on RXF 393 renal, 41.5 µM; with ACHN renal it was > 100 µM; with COLO 205 colon, > 100 µM; in the test with LOX IMVI melanoma, > 100 µM; in the test with MALME-3M melanoma, 75.1 µM. Also, the TGI in the test with NCI-H460 lung, with UACC-257 melanoma and with TK-10 renal was > 100 µM in each case.
On to `CN(C)CCC(=O)N1CCc2c([nH]c3ccccc23)C1c1cccnc1` (centres undefined), for which the TGI is > 100 µM in the test with SNB-19 CNS; 59.7 µM in the test on RXF 393 renal; > 100 µM in the test with ACHN renal; > 100 µM in the test on LOX IMVI melanoma; > 100 µM with NCI-H460 lung; > 100 µM in the test on UACC-257 melanoma. Besides, in the test with TK-10 renal, the TGI is > 100 µM.
For the compound `CC1NCCc2c1[nH]c1cc(O)ccc21` (centres undefined), the TGI in the test with SNB-19 CNS, with RXF 393 renal, with ACHN renal, in the test on COLO 205 colon, in the test on LOX IMVI melanoma and in the test with MALME-3M melanoma was > 100 µM each time. The TGI in the test on NCI-H460 lung, with UACC-257 melanoma and in the test on TK-10 renal was > 100 µM each time.
Consider `CCOC(=O)N1CCc2cc(OC)c(OC)cc2/C1=C/c1ccc(OC)c(OC)c1`, for which the TGI is > 100 µM in the test with SNB-19 CNS; > 100 µM in the test with RXF 393 renal; > 100 µM in the test on ACHN renal; > 100 µM in the test on COLO 205 colon; > 100 µM in the test on LOX IMVI melanoma; 67.6 µM in the test on MALME-3M melanoma. In addition, the TGI with UACC-257 melanoma and in the test with TK-10 renal was > 100 µM each time.
As for `O=C(Nc1ccccc1[N+](=O)[O-])C(=O)C(C(=O)c1ccccc1-c1ccccc1)C1OC(=O)c2ccccc21` (centres undefined), the TGI in the test with SNB-19 CNS was 33.2 µM; in the test with RXF 393 renal, 25.9 µM; in the test on ACHN renal it was > 100 µM; with COLO 205 colon it was 32.6 µM; in the test with LOX IMVI melanoma it was 36 µM; with MALME-3M melanoma, 29.9 µM. Besides, the TGI in the test on NCI-H460 lung is 30.7 µM; in the test with UACC-257 melanoma, 33 µM; in the test with TK-10 renal it was 47.1 µM.
Take `O=C1[C@@H]2C(c3ccncc3)=NO[C@@H]2C(=O)N1c1ccc(Cc2ccc(N3C(=O)[C@H]4C(c5ccncc5)=NO[C@H]4C3=O)cc2)cc1`: the TGI in the test on RXF 393 renal, in the test with ACHN renal, in the test with COLO 205 colon, in the test with LOX IMVI melanoma, in the test on MALME-3M melanoma and with NCI-H460 lung was > 100 µM each time. Also, the TGI in the test with UACC-257 melanoma and in the test on TK-10 renal was > 100 µM throughout.
For the compound `C/C(CC(=O)Nc1ccccc1)=N\NC(N)=S`, the TGI in the test on RXF 393 renal, in the test with COLO 205 colon, in the test on LOX IMVI melanoma, with MALME-3M melanoma, in the test on NCI-H460 lung and in the test with UACC-257 melanoma was > 100 µM in each case. Moreover, the TGI in the test on TK-10 renal was > 100 µM.
For `Cc1cccc(C)c1NC(=O)CCCC(=O)C(C#N)c1ccc(Cl)cc1` (centres undefined), the TGI in the test with SNB-19 CNS, with ACHN renal, in the test with COLO 205 colon, in the test with LOX IMVI melanoma, in the test with MALME-3M melanoma and in the test on NCI-H460 lung was > 100 µM throughout. The TGI in the test with UACC-257 melanoma and in the test on TK-10 renal was > 100 µM each time.
Consider `C=C[Si](C)(C)COC(=O)/C(C#N)=C/C=C/c1ccccc1`, for which the TGI in the test with SNB-19 CNS, in the test on RXF 393 renal, in the test on ACHN renal, in the test with COLO 205 colon, with MALME-3M melanoma and in the test with NCI-H460 lung was > 100 µM in each case. Further, the TGI in the test on UACC-257 melanoma is > 100 µM.
For `Cc1ccc(S(=O)(=O)N[C@@H](Cc2ccccc2)C(=O)CCl)cc1`, the TGI stood at 47.2 µM with SNB-19 CNS; 37.2 µM in the test on RXF 393 renal; 28.1 µM in the test on ACHN renal; 52.3 µM in the test with COLO 205 colon; 10.4 µM with LOX IMVI melanoma; 40 µM in the test on MALME-3M melanoma. Besides, the figures for the TGI in the test on NCI-H460 lung, in the test on UACC-257 melanoma and with TK-10 renal were > 100 µM, > 100 µM and 41.7 µM, respectively. The GI50 in the test on RXF 393 renal was 14.6 µM; with ACHN renal, 13 µM; with COLO 205 colon, 19.9 µM; in the test on LOX IMVI melanoma it was 2.31 µM; with MALME-3M melanoma, 18.1 µM; in the test with NCI-H460 lung it was 21.8 µM. Besides, the GI50 in the test with UACC-257 melanoma was 43.2 µM; in the test on TK-10 renal it was 19.4 µM.
For the compound `CC1(C)Cc2nnsc2C2=C1C(=O)CCS2`, the TGI with SNB-19 CNS, in the test with RXF 393 renal, in the test with ACHN renal, in the test on COLO 205 colon, in the test on LOX IMVI melanoma and with MALME-3M melanoma was > 100 µM each time. Further, the TGI with NCI-H460 lung, in the test with UACC-257 melanoma and in the test on TK-10 renal was > 100 µM each time.
Take `NCCn1cnc2nc(NC(=O)c3ccccc3)[nH]c(=O)c21`: the TGI in the test on SNB-19 CNS, in the test on RXF 393 renal, with ACHN renal, in the test with COLO 205 colon, in the test with LOX IMVI melanoma and in the test with MALME-3M melanoma was > 100 µM throughout. In addition, the TGI with NCI-H460 lung, in the test on UACC-257 melanoma and in the test with TK-10 renal was > 100 µM throughout.
For the compound `CCOC(=O)C1=C(C)N(NC(=O)OC)C2(N)N(NC(=O)OC)C(C)=C(C(=O)OCC)C12C#N` (centres undefined), the TGI in the test on SNB-19 CNS, in the test on ACHN renal, in the test with LOX IMVI melanoma, in the test on MALME-3M melanoma, with NCI-H460 lung and in the test with UACC-257 melanoma was > 100 µM each time.
Consider `CC(C)(C)c1cc(-c2c3nc(c(-c4cc(C(C)(C)C)cc(C(C)(C)C)c4)c4ccc([nH]4)c(-c4cc(C(C)(C)C)cc(C(C)(C)C)c4)c4nc(c(-c5cc(C(C)(C)C)cc(C(C)(C)C)c5)c5ccc2[nH]5)C=C4)C=C3)cc(C(C)(C)C)c1`, for which the TGI with SNB-19 CNS, in the test with RXF 393 renal, with ACHN renal, in the test on COLO 205 colon, in the test on LOX IMVI melanoma and in the test on MALME-3M melanoma was > 100 µM each time. Besides, the TGI in the test on NCI-H460 lung, in the test with UACC-257 melanoma and in the test on TK-10 renal was > 100 µM each time.
Consider `CC(=O)Oc1ccccc1C(=O)NCCC[Se]C#N`, for which the GI50 in the test with SNB-19 CNS was 1.57 µM; in the test with RXF 393 renal, 2.67 µM; in the test with ACHN renal it was 2.29 µM; in the test with COLO 205 colon it was 12.8 µM; with LOX IMVI melanoma it was 1.51 µM; in the test with MALME-3M melanoma it was 1.72 µM. Also, the values for the GI50 in the test on NCI-H460 lung and with TK-10 renal were 1.69 µM and 1.83 µM, respectively. The TGI with SNB-19 CNS worked out at 2.95 µM; in the test with RXF 393 renal, 6.7 µM; in the test on ACHN renal, 4.3 µM; in the test on COLO 205 colon, 29.9 µM; in the test on LOX IMVI melanoma, 5.26 µM; with MALME-3M melanoma it was 3.62 µM. Further, the TGI in the test with NCI-H460 lung is 4.52 µM; with TK-10 renal it was 3.82 µM.
With `NC1=NCC(c2ccccn2)C1c1ccc(F)cc1` (centres undefined), the TGI with SNB-19 CNS, in the test with RXF 393 renal, in the test with ACHN renal, in the test with COLO 205 colon, with LOX IMVI melanoma and in the test on MALME-3M melanoma was > 100 µM in each case. Further, the TGI in the test on NCI-H460 lung, with UACC-257 melanoma and in the test on TK-10 renal was > 100 µM in each case.
With `C/C=C/C=C/CCCCCCCCCCCCC[C@]1(OC)C=CC(CC(=O)OC)OO1` (some centres undefined), the GI50 with RXF 393 renal is 16.5 µM; in the test with ACHN renal, 16.6 µM; with COLO 205 colon, 18.9 µM; in the test with LOX IMVI melanoma, 19.3 µM; in the test on TK-10 renal, 17.6 µM. In addition, the TGI with RXF 393 renal was determined as 31 µM; with ACHN renal it was 31.4 µM; in the test with COLO 205 colon, 36.1 µM; with LOX IMVI melanoma it was 37.1 µM; with MALME-3M melanoma, 77.5 µM; in the test with NCI-H460 lung it was 46.8 µM. Further, the TGI in the test with UACC-257 melanoma turned out to be 45.6 µM; in the test with TK-10 renal, 31.7 µM.
In the case of `COc1ccc(/C(=C\c2cc(OC)c(OC)c(OC)c2)C(=O)O)cc1`, the TGI is > 100 µM in the test with SNB-19 CNS; 39.7 µM in the test with RXF 393 renal; > 100 µM in the test with ACHN renal; 35.2 µM with COLO 205 colon; > 100 µM with LOX IMVI melanoma; > 100 µM in the test on MALME-3M melanoma. Moreover, the TGI in the test with NCI-H460 lung, in the test on UACC-257 melanoma and in the test on TK-10 renal was > 100 µM each time.
For `C=CCN(N=O)C(=O)N(CCCCC(NC(C)=O)C(=O)NCc1ccccc1)Cc1ccccc1` (centres undefined), the TGI in the test with SNB-19 CNS is > 100 µM; in the test with RXF 393 renal, 93.1 µM; in the test on ACHN renal, > 100 µM; in the test on COLO 205 colon, 51.7 µM; in the test with LOX IMVI melanoma it was 55.3 µM; in the test with MALME-3M melanoma it was 58.9 µM. For the same compound, the TGI with NCI-H460 lung, with UACC-257 melanoma and in the test with TK-10 renal was > 100 µM each time.
Take `Cc1cc(Cl)ccc1N1C(=O)C(=O)C(c2nc3ccccc3o2)C(=O)C1=O`: the TGI with SNB-19 CNS, in the test on RXF 393 renal, in the test with ACHN renal, in the test with COLO 205 colon, in the test with MALME-3M melanoma and with NCI-H460 lung was > 100 µM throughout. Further, the TGI with UACC-257 melanoma and in the test on TK-10 renal was > 100 µM in each case.
As for `Cc1nnc2n1N=C(c1ccc(-c3ccc([N+](=O)[O-])cc3)o1)CS2`, the TGI with SNB-19 CNS, in the test on ACHN renal, in the test on COLO 205 colon, in the test with LOX IMVI melanoma, with MALME-3M melanoma and with NCI-H460 lung was > 100 µM throughout. In addition, the TGI in the test on UACC-257 melanoma and with TK-10 renal was > 100 µM throughout.
